Patent US20150359884A1, “MULTI-PHOTON ISOMERISATION OF COMBRETASTATINS AND THEIR USE IN THERAPY” (priority 2011, published 2015)

Experiments:
[1] = Observed solubility in water; type: physicochemical; details: aqueous solution, comparison in words
[2] = Fluorescence quantum yields in solvents, UV one-photon excitation; type: physicochemical; details: 20° C., 290-300 nm excitation
Description: Absorption spectra were measured in either a Perkin Elmer Lambda 25 or 950 spectrophotometer. Fluorescence measurements were made with either a Spex Fluoromax or Varian Cary Eclipse spectrofluorimeter using the spectral correction curves supplied by the manufacturers. Fluorescence quantum yields with UV (one-photon) excitation were determined using either 2-aminopyridine (Φref 0.6 [7]) or 9-chloroanthracene (Φref 0.50 in dichloromethane, determined here relative to 9,10-diphenylanthracene in cyclohexane (Φref 0.97) and anthracene in ethanol (Φref 0.28 [8]) as standards. Fluorescence quantum yields were determined from the relative slopes of plots of integrated fluorescence intensity versus (1-10^−A) for samples having absorbance A≦0.1. The square of the refractive index (n^2) correction was applied when sample and reference compounds were in different solvents. Irradiation of the samples was minimized by the use of narrow excitation slits to reduce simultaneous photoisomerization.
The fluorescence quantum yields for E-CA4F were generally somewhat higher than for E-CA4.

[3] = Two-photon absorption cross section using reference fluorophore 9-chloroanthracene; type: physicochemical; details: at 620 nm, DCM
Excerpt: Cell images were overlaid using Adobe Photoshop CS3.
Published cross sections for two photon absorption (σ2, the probability of an absorption process or photon interaction) typically show large variations depending on the method of measurement, using either the Z-scan method or a reference fluorophore, and the power range and pulse duration of the laser used for excitation. We have attempted to determine values of σ2 for E-CA4 and E-ACA4 using a reference fluorophore. 9-Chloroanthracene (9CIA) was selected as a standard fluorophore with an appropriate fluorescence spectrum and for which 2PE cross-sections are available. The values of σ2 at 620 nm for E-CA4 and E-CA4F in DCM were determined to be 2.1±0.5 and 2.75±0.6 GM units respectively. […] Values of σ2 at 620 nm for E-ACA and E-DMAC were both 5.7±1.2. These larger values may be consistent with some charge transfer character of the excitation of these compounds.

[4] = Fluorescence lifetimes in solvents, two-photon excitation with TCSPC; type: physicochemical; details: 20° C., two-photon excitation 620-630 nm
Description: Fluorescence lifetimes were determined using 2PE at 630 nm with the microscope TCSPC setup (overall time response of 25 ps fwhm) and produced the results shown in Table 1. […] Characterisation of the spectroscopic properties of these latter two compounds remains to be investigated further. […] In the very viscous environment provided by glycerol the lifetime increases further to 1180 ps. In the range of alkanols studied the lifetime is closely correlated with solvent viscosity as shown in the inset to FIG. 3. […] However it is clear that the measured lifetime has the potential to report on cellular environments in FLIM studies. For E-CA4F similar trends are observed, but the overall differences in both lifetimes and quantum yields over the range of solvents are rather less than for E-CA4. The fluorescence lifetimes of E-CA4F are confined to a narrower range having values ranging from 440 ps in methanol through 740 ps in hexane to 1070 ps in glycerol. The more pronounced solvent dependence for E-CA4 no doubt reflects the more polar nature of the molecule compared with E-CA4F. The relative polarities may be judged from the partition coefficients (P) calculated according to the method of Brown et al..

cells = details: typical toxicity assays; cited from earlier work
[5] = Isomerization by two-photon absorption at 590 nm in DMSO solution; type: physicochemical; details: Z-CA4 1 mM in DMSO, two-photon excitation 590 nm
Description: FIG. 11. […] (A) Power dependence of FI from E-CA4 (0.4 mM) versus laser power at the sample. (B) Percentage conversion of Z-CA4 to the E-isomer versus laser power at the sample, calculated from the measured FI from a solution of Z-CA4 (1 mM) and a series of calibration curves using solutions of E-CA4 at each laser power.
Using 2PE the photochemical effects occur within the femtolitre volume of excitation. […] At any one instant, the concentration of isomerized compound in the focal volume will represent a steady state achieved through the balance of diffusion from the focal volume and the rate of photochemical formation.
Calibration curves were constructed of FI versus E-CA4 concentration at each laser power. These were then compared with the FI from the two-photon experiment with Z-CA4 to estimate the concentration of E-CA4 formed within the focal volume.

[6] = Picosecond time-resolved infrared (TRIR) spectroscopy of excited states; type: physicochemical; details: dichloromethane, 266 nm excitation
Description: The ultrafast time-resolved infrared (TRIR) experiments were performed on the ‘ULTRA’ laser system at the Science and Technology Facilities Council Rutherford Appleton Laboratory. The capabilities of the ULTRA instrument are described in detail elsewhere. Briefly, a chirped pulse amplified titanium:sapphire laser operating at 10 kHz repetition rate produced 40-80 fs duration pulses at a wavelength of 800 nm. The UV excitation pulse was generated from third harmonic generation of the 800 nm output of the amplifier with ˜50 fs duration at 266 nm, irradiating samples with a 1 μJ, 100 μm diameter beam. The mid-IR probe pulse was generated using ˜0.4 mJ of the 800 nm femtosecond output to pump an optical parametric amplifier, and difference frequency mixing of the signal and idler components. The mid-IR probe output pulses had ˜500 cm-1 bandwidth and ˜50 fs pulse duration. The UV pulses were polarized at a magic angle to the IR probe laser polarization. The timing between the pump and probe was performed using a PCcontrolled optical delay line. The sample in solution was placed between two 25 mm diameter CaF2 plates in a rasterscanned Harrick cell to limit irradiation of the sample by multiple pulses. The optical path of the sample between the two windows was controlled using a 100 μm PTFE spacer and the solution flowed using a peristaltic pump. The intensity of the transmitted mid-IR light was dispersed by a grating onto a pair of 128-element mercury-cadmium telluride array detectors (IR Associates), providing full (i.e. ˜500 cm-1) spectral coverage with every laser pulse. The overall instrument response time was ˜200 fs. A reference spectrum of the laser pulse (before the Harrick cell) was accumulated on a third, 64-element array detector and was used to remove the effects of laser fluctuations from the transient absorption data. Ground-state FTIR spectra were recorded using a Nicolet Avatar 360 spectrometer.
FIGS. 12 and 13 show the TRIR spectra of both isomers of CA4 following ultrafast electronic excitation using 266 nm, with the ground-state FTIR spectra shown beneath the time resolved data for comparison. To date there has been little characterization of combretastatins by infrared spectroscopy. However, the ground-state FTIR spectra have obvious similarities with stilbene and on this basis we assign the 1586/1581 and 1510/1509 cm-1 bands in E-CA4/Z-CA4 to the v8a ring stretches of the phenyl groups and v19a ring stretch with additional contributions from C—H in-plane bending. In the excited state spectra, there are negative absorption bands corresponding to bleaching of the ground-state absorptions and both the E- and Z-isomers are dominated by transient bands between 1350 and 1500 cm-1. At early times the transient bands show rapid shifting over about 10 cm-1 to higher wavenumbers associated with rapid ‘cooling’ of excess vibrational energy following electronic excitation as commonly observed in other molecular systems including DNA [26] and for the C═C stretching band of E-stilbene observed by time-resolved resonance Raman spectroscopy. It is also notable that for E-CA4 at pump-probe delays up to 20 ps, the intensities of the transient bands increase and this is most likely due to molecular rearrangements taking place lowering the overall symmetry of the molecule and increasing the cross-sections of these IR active modes. […]

Structure (SMILES)	Solubility in water [1]	Fluorescence quantum yield φ ([2]; DCM)	Fluorescence quantum yield φ ([2]; DMSO)	Fluorescence quantum yield φ ([2]; Hexane)	Fluorescence quantum yield φ ([2]; MeCN)	Fluorescence quantum yield φ ([2]; MeOH)	Two photon absorption cross section σ2 [3]	Fluorescence lifetime τ ([4]; DMSO)	Fluorescence lifetime τ ([4]; EtOH, ne = non-exponential)	Fluorescence lifetime τ ([4]; Ethylene glycol, ne = non-exponential)	Fluorescence lifetime τ ([4]; Glycerol, ne = non-exponential)	Fluorescence lifetime τ ([4]; Hexane)	Fluorescence lifetime τ ([4]; MeCN, ne = non-exponential)	Fluorescence lifetime τ ([4]; MeOH, ne = non-exponential)	Concentrations required to kill cells (cells)	Concentration of E-CA4 formed within the focal volume [5]	Conversion of the initial concentration of Z-CA4 to the E-isomer [5]	Excited state decay, longer lifetime (relaxed excited state) [6]	Excited state decay, shorter lifetime (biexponential fit) [6]
COc1ccc(/C=C/c2cc(OC)c(OC)c(OC)c2)cc1N [E-ACA, (E)-1-(3′-Amino-4′-methoxyphenyl)-2-(3″,4″,5″-trimethoxyphenyl)ethene]	more soluble in water than the other combretastatins studied here	0.43	0.28	0.38	0.41	0.11	5.7±1.2 GM units	4.8 ns	ne	ne	ne	1.65 ns	3.6 ns	ne	–	–	–	–	–
COc1ccc(/C=C\c2cc(OC)c(OC)c(OC)c2)cc1O [Z-CA4, combretastatin A4, reference compound]	–	–	–	–	–	–	–	–	–	–	–	–	–	–	nanomolar	about 250 μM	25%	10.1±0.71 ps	1.5±0.15 ps
